Reference: patent US20160061820A1, “IN VITRO BILIARY EXCRETION ASSAY” (HUREL CORPORATION, priority 2014, published 2016)
Where two headings read alike, the source gives them in different places.

How the values were obtained:
bile canaliculi = assay: Disruption of canaliculi, CDFDA staining (Example 3); type: cell-based, human; conditions: 5 uM CDFDA with 10 uM LatA, 20 min
Method: In the second method, the cultures were exposed to buffer containing latranculin A (LatA). The LatA functions to disrupt microfilament organization, a key step in tight junction formation, which allows bile present in the canaliculi to escape. Cells were first washed twice in HBSS buffer with Ca+. Cells were then incubated with 5 uM CDFDA in HBSS buffer with Ca+ and 10 uM LatA for 20 min. Cells were then washed two times in HBSS buffer with Ca+.

in vitro [1] = conditions: hepatocytes
Method: (§1) The single well method of assessing biliary clearance of the invention was used.
(§2) A coculture was exposed to each tested compound in culture media at the indicated concentration for 20 minutes. The media was then removed (collection #1) and stored for analysis of remaining compound. The cultures were washed twice with buffer solution (collections #2 and #3) and each wash solution was stored for analysis of remaining taurcholate. […] This releases taurcholate accumulated in the bile of the canaliculi. At the end of the incubation period the culture media was collected (collection #4). The cells were then exposed to deionized water which functions to disrupt the cellular membrane and release the compound accumulated in the cellular compartment (collection #5). Because any compound present in the canaliculi was already collected in collection #4, collection #5 contains any compound present in the cell but not including any present in the canaliculi.
(§3) In teach figure the measured amount of compound in bile and the measured amount of compound in the cytoplasm are presented together as two parts of a single bar on the left side of the figure. The measured value for the bile is also shown as a bar on the right side of the figure. Comparing the height of the right bar (bile) to the height of the composite left bar (total of cytoplasm+bile) allows visulation of the portion of the compound that accumulated in the bile. […] Equation 2 was used to calculate the BEI for each compound in this system. The data were used to calculate the Biliary Clearance (Equation 1) and BEI (Equation 2) for each tested compound.

in vitro [2] = conditions: rat, hepatocytes
Method: as §1
(§4) The media was then removed (collection #1) and stored for analysis of remaining compound. […] At the end of the incubation period the culture media was collected (collection #4). The cells were then exposed to deionized water which functions to disrupt the cellular membrane and release the compound accumulated in the cellular compartment (collection #5). Because any compound present in the canaliculi was already collected in collection #4, collection #5 contains any compound present in the cell but not including any present in the canaliculi. […] The data is presented in FIG. 9-13 using the same format as used in FIGS. 4-8.
(§5) Equation 2 was used to calculate the BEI for each compound in this system.

[3] = test system: cryopreserved human hepatocytes in sandwich culture; conditions: cited from earlier work
[4] = test system: cultured human hepatocytes; assay: in vitro
Method: as §1, §2, §3

cultured rat hepatocytes = assay: in vitro
Method: as §1, §4, §5

[5] = Lundquist (2014); cited from earlier work
[6] = test system: primary human hepatocytes grown in a hepatocyte-stromal cell coculture
Method: Accumulation in the bile and accumulation in the cell were measured separately in a single well of a coculture plate. The measured values for bile accumulation and cell accumulation are shown as separately shaded portions of a single bar. The error bars represent a single standard deviation.
FIG. 18 compares the results of three independent experiments measuring biliary uptake of pravastatin by primary human hepatocytes grown in a hepatocyte-stromal cell coculture. Accumulation in the bile and accumulation in the cell were measured separately in a single well of a coculture plate. The measured values for bile accumulation and cell accumulation are shown as separately shaded portions of a single bar. The error bars represent a single standard deviation.

[7] = Bi et al. (2006), two culture method

C/C1=C/C(=O)O[C@@H]2C[C@@H](CC[C@H](C)/C=C\C=C\CC1)O[C@@](O)([C@@H]1CSC(=O)N1)C2 [LatA, latrunculin A]
CDA staining of canaliculi (bile canaliculi): no CDA staining was apparent

C[C@H]1O[C@@H](O[C@H]2[C@@H](O)C[C@H](O[C@H]3[C@@H](O)C[C@H](O[C@H]4CC[C@@]5(C)[C@H](CC[C@@H]6[C@@H]5C[C@@H](O)[C@]5(C)[C@@H](C7=CC(=O)OC7)CC[C@]65O)C4)O[C@@H]3C)O[C@@H]2C)C[C@H](O)[C@@H]1O [digoxin]
microsomal CLint (in vitro [1]; human): 0.4 µL/min/mg
microsomal CLint (in vitro [2]): 0.31 ± 0.02 µL/min/mg
Uptake Rate [3, 7]: 0.7-1.5 pmol/min/mg protein

C[C@]12CC[C@@H]3c4ccc(O)cc4CC[C@H]3[C@@H]1CC[C@@H]2O[C@@H]1O[C@H](C(=O)O)[C@@H](O)[C@H](O)[C@H]1O [estradiol-glucuronide]
microsomal CLint [4]: 0.3 µL/min/mg
Rat In Vitro PK Intrinsic CLint, biliary (cultured rat hepatocytes; rat, hepatocytes): 2.7 ± 0.1 μl/min/mg protein
Biliary Excretion Index (BEI) [3, 7]: 37%
Uptake Rate [3]: 2.2 pmol/min/mg protein
microsomal CLint [3]: 1.8 µL/min/mg

CC[C@H](C)C(=O)O[C@H]1C[C@H](O)C=C2C=C[C@H](C)[C@H](CC[C@@H](O)C[C@@H](O)CC(=O)O)[C@H]21 [pravastatin]
microsomal CLint (in vitro [1]; human): 0.38 µL/min/mg
microsomal CLint (in vitro [2]): 0.29 ± 0.02 µL/min/mg

CC(C)c1nc(N(C)S(C)(=O)=O)nc(-c2ccc(F)cc2)c1/C=C/[C@@H](O)C[C@@H](O)CC(=O)O [rosuvastatin]
microsomal CLint (in vitro [1]; human): 6 µL/min/mg
microsomal CLint (in vitro [2]): 3.5 ± 0.3 µL/min/mg
Fold Difference (cultured rat hepatocytes; rat): 0.6
Rat In Vivo PK In Vivo CLbiliary [5]: 48.0 ± 10.8 mL/min/kg
Biliary Excretion Index (BEI) [3, 7]: 43-58%
Uptake Rate [3, 7]: 15-26 pmol/min/mg protein

C[C@H](CCC(=O)NCCS(=O)(=O)O)[C@H]1CC[C@H]2[C@@H]3[C@H](O)C[C@@H]4C[C@H](O)CC[C@]4(C)[C@H]3C[C@H](O)[C@]12C [taurocholate, taurocholic acid]
microsomal CLint (in vitro [1]): 23 µL/min/mg
BEI (cultured rat hepatocytes; rat hepatocyte coculture, compound 2 uM (pravastatin 5 uM), 20 min, latrunculin 5 uM 30 min): 60%
Rat In Vitro PK Predicted CLbiliary (cultured rat hepatocytes; scaled from Clint,bile with 200 mg protein/g liver and 40 g liver/kg): 67.1 ± 4.8 mL/min/kg
Bile accumulation, Mean ([6]; Exp. 1): 541.90
Bile accumulation, Mean ([6]; Exp. 2): 556.08
Bile accumulation, Mean ([6]; Exp. 3): 543.31
